Patent US4633014A, “Substituted 3-hydrazinopropionates” (priority 1983, dated 1986)

Experiments:
[1] = test system: arrhythmia induced by an intravenous administration of calcium chloride; assay: Antiarrhythmic activity on a model of arrhythmia induced by intravenous calcium chloride (antagonism to calcium) in mice; assay type: in vivo; conditions: white mice, 20-40 minutes before
Description: The specific (antiarrhythmic) effect and acute toxicity were studied.
The antiarrhythmic activity of the compounds according to the present invention was studied on a model of arrhythmia induced by an intravenous administration of calcium chloride. In experiments on white mice of both sexes with a mass of 18-25 g narcotized by urethane (1,200 mg/kg intraperitoneally) ECG in the second standard lead was recorded. A 2% solution of calcium chloride was introduced into the tail vein at a constant rate (0.01 ml for 2 sec). The dose of calcium chloride causing arrhythmia and the dose causing the heart arrest were determined. In the test groups the test compounds were administered intraperitoneally 20-40 minutes before the beginning of the experiment.

white mice = assay: in vivo
Description: (§1) The study of the effect provided by the compounds according to the present invention on the cardio-vascular system was carried out in experiments on white mice. The specific (antiarrhythmic) effect and acute toxicity were studied.
(§2) The acute toxicity of the compounds according to the present invention was determined in experiments on white mice with a mass of 20-25 g. The test compounds were administered intraperitoneally in the form of aqueous solutions or suspensions in Twin-80. Observation over the test animals was effected for 10 days.

in vivo = conditions: mouse, in vivo, ip
Description: as §1, §2

[2] = white mice, intraperitoneal, relative to quinidine

| SMILES | Dose of calcium chloride causing arrythmia in animals under experiment ([1]; intraperitoneal dose 5 mg/kg) | Dose of calcium chloride causing death in animals under experiment ([1]; intraperitoneal dose 5 mg/kg) | Dose of calcium chloride causing arrythmia in animals under experiment ([1]; intraperitoneal dose 25 mg/kg) | Dose of calcium chloride causing death in animals under experiment ([1]; intraperitoneal dose 25 mg/kg) | Relative toxisity to quinidine (white mice; mouse, in vivo, ip, 14400 min) | LD50 at 240 h (in vivo) | Dose of calcium chloride causing arrythmia in animals under experiment ([1]; intraperitoneal dose 15 mg/kg) | Dose of calcium chloride causing death in animals under experiment ([1]; intraperitoneal dose 15 mg/kg) | Relative toxisity to quinidine (white mice; [2]) |
| --- | --- | --- | --- | --- | --- | --- | --- | --- | --- |
| CNC(=O)N(CCC#N)N(C)C [I-21, 3-(2,2-dimethyl-1-methylcarbamoylhydrazino)propionitrile] | 87,5 mg/kg | 111,5 mg/kg | 113,6 mg/kg | 128,0 mg/kg | 11,5 | 1800 mg/kg | – | – | – |
| C=CCNC(=S)N(CCC#N)N(C)C [I-22, 3-(2,2-dimethyl-1-allylthiocarbamoylhydrazino)propionitrile] | 92,5 mg/kg | 108,0 mg/kg | 130,0 mg/kg | 146,0 mg/kg | 9,3 | 1450 mg/kg | – | – | – |
| CN(C)N(CCC#N)C(=S)Nc1ccccc1 [I-23, 3-(2,2-dimethyl-1-phenylthiocarbamoylhydrazino)propionitrile] | 86 mg/kg | 101,3 mg/kg | 117,7 mg/kg | 119,0 mg/kg | 10,7 | 1680 mg/kg | – | – | – |
| COC(=O)CCN(C(C)=O)N(C)C [I-24, 3-(2,2-Dimethyl-1-acetylhydrazino)methylpropionate] | 108,0 mg/kg | 132,0 mg/kg | – | – | 8,3 | 1300 mg/kg | 116,5 mg/kg | 140,3 mg/kg | – |
| CCCC(=O)N(CCC(=O)OC)N(C)C [I-25, 3-(2,2-dimethyl-1-butyrylhydrazino)-methylpropionate] | 105,1 mg/kg | 112,3 mg/kg | 77,0 mg/kg | 95,0 mg/kg | 11,2 | 1750 mg/kg | – | – | – |
| CCCCCC(=O)N(CCC(=O)OC)N(C)C [I-26, 3-(2,2-dimethyl-1-hexanoylhydrazino)methylpropionate] | 111,3 mg/kg | 138,0 mg/kg | – | – | – | 630 mg/kg | 107,6 mg/kg | 140,0 mg/kg | 4,0 |
| CCCCCCCCCCCCCCCC(=O)N(CCC(=O)OC)N(C)C [I-27, 3-(2,2-dimethyl-1-hexadecanoylhydrazino)methylpropionate] | 92,7 mg/kg | 118,0 mg/kg | – | – | 15,2 | 2380 mg/kg | 109,0 mg/kg | 120,6 mg/kg | – |
| CCCCCCCCCCCCCCCCCC(=O)N(CCC(=O)OC)N(C)C [I-28, 3-(2,2-dimethyl-1-octadecanoylhydrazino)methylpropionate] | 90,1 mg/kg | 108 mg/kg | 133,8 mg/kg | 143 mg/kg | 39,4 | 6150 mg/kg | – | – | – |
| COC(=O)CCN(C(=O)c1ccccc1)N(C)C [I-29, 3-(2,2-dimethyl-1-benzoylhydrazino)methylpropionate] | 97,6 mg/kg | 109,5 mg/kg | 140,2 mg/kg | 142,0 mg/kg | 22,4 | 3500 mg/kg | – | – | – |
| COC(=O)CCN(C(=O)Cc1ccccc1)N(C)C [I-30, 3-(2,2-dimethyl-1-benzylcarbonylhydrazino)methylpropionate] | 94,0 mg/kg | 120,5 mg/kg | – | – | 7,6 | 1200 mg/kg | 102,0 mg/kg | 125,0 mg/kg | – |
| COC(=O)CCN(C(=O)c1ccccc1F)N(C)C [I-31, 3-(2,2-dimethyl-I-(2'-fluorophenylcarbonyl)hydrazino)methylpropionate] | 88,5 mg/kg | 109,0 mg/kg | – | – | 10,2 | 1600 mg/kg | 100,5 mg/kg | 112,5 mg/kg | – |
| COC(=O)CCN(C(=O)c1ccc(Br)cc1)N(C)C [I-32, 3-(2,2-dimethyl-1-(4'-bromophenylcarbonyl)hydrazino)methylpropionate] | 90,3 mg/kg | 105,5 mg/kg | – | – | 10,7 | 1680 mg/kg | 100,0 mg/kg | 110,0 mg/kg | – |
| COC(=O)CCN(C(=O)c1ccccc1COC(=O)c1ccccc1)N(C)C [I-33] | 87,5 mg/kg | 108,6 mg/kg | – | – | 18,2 | 2850 mg/kg | 111,0 mg/kg | 132,5 mg/kg | – |
| C=CC(=O)N(CCC(=O)OC)N(C)C [I-34, 3-(2,2-dimethyl-1-acroylhydrazino)-methylpropionate] | 108,4 mg/kg | 130,0 mg/kg | – | – | 6,2 | 980 mg/kg | 110,5 mg/kg | 136,0 mg/kg | – |
| COC(=O)CCN(C(=O)CCO)N(C)C [I-35, 3-(2,2-Dimethyl-1-3'-hydroxypropanoylhydrazino)-methylpropionate] | 102,3 mg/kg | 120 mg/kg | – | – | > 19,2 | > 3000 mg/kg | 105,8 mg/kg | 132,5 mg/kg | – |
| COC(=O)CCN(C(=O)OC)N(C)C [I-36, 3-(2,2-dimethyl-1-methoxycarbonylhydrazino)methylpropionate] | 94,0 mg/kg | 113,6 mg/kg | – | – | – | 1380 mg/kg | 98,6 mg/kg | 118,5 mg/kg | 8,8 |
| COC(=O)C(C)CN(C(C)=O)N(C)C (stereo not drawn) [I-37, 3-(2,2-dimethyl-I-acetylhydrazino)-2-methylmethylpropionate] | 100 mg/kg | 132,0 mg/kg | – | – | – | 810 mg/kg | 123 mg/kg | 138,0 mg/kg | 5,1 |
| CCCCCC(=O)N(CC(C)C(=O)OC)N(C)C (stereo not drawn) [I-38, 3-(2,2-dimethyl-1-hexanoylhydrazino)-2-methylmethylpropionate] | 102,0 mg/kg | 115,8 mg/kg | – | – | 12,3 | 1930 mg/kg | 96,5 mg/kg | 120,0 mg/kg | – |
| COC(=O)C(C)CN(C(=O)c1ccccc1)N(C)C (stereo not drawn) [I-39, 3-(2,2-dimethyl-1-benzoylhydrazino)-2-methylmethylpropionate] | 88,7 mg/kg | 111,3 mg/kg | – | – | 11,2 | 1750 mg/kg | 100,0 mg/kg | 121,5 mg/kg | – |
| COC(=O)C(C)CN(C(=O)c1ccccc1F)N(C)C (stereo not drawn) [I-40, 3-(2,2-dimethyl-1-2'-fluorobenzoylhydrazino)-2-methylmethylpropionate] | 93,5 mg/kg | 115,0 mg/kg | – | – | 8,0 | 1400 mg/kg | 103,3 mg/kg | 118,6 mg/kg | – |
